Measured values published in article PMC4104029, “Mechanism of Action of Compound-13: An α1-Selective Small Molecule Activator of AMPK” (Chemistry & Biology, 2014).

Test system: 5′-nucleotidase
Test: 5′-Nucleotidase assay
Format: biochemical
Conditions: concentrations up to 100 μM; data not shown
Procedure: Additional enzyme assays. Glycogen phosphorylase (EC 2.4.1.1) was assayed in the physiological direction in reactions containing 20 mM BES pH 6.8, 20 mM phosphate, 1 mM NADP+, 0.5 mM MgCl2, 0.1 % glycogen, 4 µM glucose-1,6-bisphosphate, 0.5 mM DTT, 0.025 % BSA, 0.6 U/ml phosphoglucomutase and 3 U/ml glucose-6-phosphate dehydrogenase (G6PDH). FBP1 (EC 3.1.3.11) was assayed in reactions containing 50 mM TES pH 7.4, 0.1 […]
mM 2-mercaptoethanol, 25 µM fructose-1,6-bisphosphate, 0.8 U/ml phosphoglucoisomerase and 0.5 U/ml G6PDH. PFK1 (EC 2.7.1.11) was assayed in reactions containing 50 mM TES pH 7.4, 2 mM MgCl2, 0.05 % BSA, 2 mM 2-mercaptoethanol, 0.5 mM fructose-6-phosphate, 1 mM ATP, 0.2 mM NADH, 0.5 U/ml aldolase, 15 U/ml triosephosphate isomerase and 2 U/ml α-glycerophosphate dehydrogenase. […] All assays were performed in a final volume of 250 µl and were monitored by changes in fluorescence (FBP1 - λex 340nm, λem 450nm) or A340. […] Liberated phosphate was determined using malachite green reagent. […] The formation of pyrophosphate (PPi) was monitored by reduction of PPi-molybdate complexes using 2-mercaptoethanol and Fiske-Subbarow reducer (Kuang, et al., 2007). […]
Tricistronic expression vectors were constructed using a strategy inspired by Neumann et al (Neumann, et al., 2003). […] The open reading frame of AMPKα1 and AMPKα2 was inserted after the 6×His tag as a Bamh1-Not1 fragment. […]

O=P(O)(O)c1ccc(-c2cc(O)on2)o1 [Compound C2, 5-(5-hydroxyl-isoxazol-3-yl)-furan-2-phosphonic acid]
effect on enzyme activity: None of these enzymes were affected
